Patent publication US10045983B2, “Heteroaryl pyridone and aza-pyrodine compounds” (Genentech, Inc., priority 2011, dated 2018)

Test: CD69 Whole Blood Assay (CD69 Hu Blood FACS)
Type: cell-based, human
Details: Lymphocyte; human whole blood, anti-IgM activated B lymphocytes, FACS; IC70; Table 1; read-out: CD69 Hu Blood FACS IC70
Text: A CD69 Whole Blood Assay can be conducted on Formula I compounds to determine the ability of compounds to inhibit the production of CD69 by B lymphocytes in human whole blood activated by crosslinking surface IgM with goat F(ab′)2 anti-human IgM (Example 907). CD69 is a type II C-type lectin involved in lymphocyte migration and cytokine secretion. CD69 expression represents one of the earliest available indicators of leukocyte activation and its rapid induction occurs through transcriptional activation (Vazquez et al (2009) Jour. of Immunology Published Oct. 19, 2009, doi:10.4049/jimmunol.0900839). Concentration-dependent inhibition of antigen receptor stimulation by selective Btk inhibitors induces cell surface expression of the lymphocyte activation marker CD69 (Honigberg et al (2010) Proc. Natl. Acad. Sci. 107(29):13075-13080). Thus, CD69 inhibition by selective Btk inhibitors may be correlated with therapeutic efficacy of certain B-cell disorders.

| SMILES | IC70 [µM] |
| --- | --- |
| Cn1cc(-c2ccnc(N3CCn4c(cc5c4CCCC5)C3=O)c2CO)cc(Nc2ccc(N3CCN(CC(C)(C)O)CC3)cn2)c1=O [Example 120, 2-(4-(5-(5-(4-(2-Hydroxy-2-methylpropyl)piperazin-1-yl)pyridin-2-ylamino)-1-methyl-6-oxo-1,6-dihydropyridin-3-yl)-3-(hydroxymethyl)pyridin-2-yl)-3,4,6,7,8,9-hexahydropyrazino[1,2-a]indol-1(2H)-one] | 0.283 |
| Cn1cc(-c2ccnc(-n3ccn4c5c(cc4c3=O)CCCC5)c2CO)cc(Nc2ccc(N3CCN(C4COC4)CC3)cn2)c1=O [Example 121, 2-(3-(hydroxymethyl)-4-(1-methyl-5-(5-(4-(oxetan-3-yl)piperazin-1-yl)pyridine-2-ylamino)-6-oxo-1,6-dihydropyridin-3-yl)pyridin-2-yl)-6,7,8,9-tetrahydropyrazino[1,2-a]indol-1(2H)-one] | 0.0323 |
| C[C@@H]1CN(c2ccc(Nc3cc(-c4ccnc(N5CCn6c(cc7c6CCCC7)C5=O)c4CO)cn(C)c3=O)nc2)[C@@H](C)CN1C1COC1 [Example 122, 2-(4-(5-(5-((2S,5R)-2,5-Dimethyl-4-(oxetan-3-yl)piperazin-1-yl)pyridin-2-ylamino)-1-methyl-6-oxo-1,6-dihydropyridin-3-yl)-3-(hydroxymethyl)pyridin-2-yl)-3,4,6,7,8,9-hexahydropyrazino[1,2-a]indol-1(2H)-one] | 0.0127 |
| Cn1cc(-c2ccnc(N3CCn4c(cc5c4CCCC5)C3=O)c2CO)cc(Nc2ccc(N3CCN(CCO)CC3)cn2)c1=O [Example 123, 2-(4-(5-(5-(4-(2-Hydroxyethyl)piperazin-1-yl)pyridin-2-ylamino)-1-methyl-6-oxo-1,6-dihydropyridin-3-yl)-3-(hydroxymethyl)pyridin-2-yl)-3,4,6,7,8,9-hexahydro-pyrazino[1,2-a]indol-1(2H)-one] | 0.0331 |
| Cn1cc(-c2ccnc(-n3ncc4c5c(sc4c3=O)CCCC5)c2CO)cc(Nc2ccc(N3CCN(C4COC4)CC3)cn2)c1=O [Example 124, 3-Hydroxymethyl-4-[1-methyl-5-(5-(4-(oxetan-3-yl)piperazin-1-yl)pyridine-2-ylamino)-6-oxo-1,6-dihydropyridin-3-yl]-2-{6-oxo-8-thia-4,5-diazatricyclo[7.4.0.0^2,7]trideca-1(9),2(7),3-trien-5-yl}pyridine] | 0.0362 |
| Cn1cc(-c2ccnc(N3CCn4c(cc5c4CCCC5)C3=O)c2CO)cc(Nc2cc3n(n2)CCN(C2COC2)C3)c1=O [Example 125, 2-(3-(Hydroxymethyl)-4-(1-methyl-5-(5-(oxetan-3-yl)-4,5,6,7-tetrahydropyrazolo[1,5-a]pyrazin-2-ylamino)-6-oxo-1,6-dihydropyridin-3-yl)pyridin-2-yl)-3,4,6,7,8,9-hexahydropyrazino[1,2-a]indol-1(2H)-one] | 0.0873 |
| Cn1cc(-c2cncc(-n3ccn4c5c(cc4c3=O)CCCC5)c2CO)cc(Nc2ccc(N3CCN(C4COC4)CC3)cn2)c1=O [Example 126, 2-(4-(Hydroxymethyl)-5-(1-methyl-5-(5-(4-(oxetan-3-yl)piperazin-1-yl)pyridin-2-ylamino)-6-oxo-1,6-dihydropyridin-3-yl)pyridin-3-yl)-6,7,8,9-tetrahydropyrazino[1,2-a]indol-1(2H)-one] | 0.138 |
| Cn1cc(-c2ccnc(N3CCn4c(cc5c4CCCC5)C3=O)c2CO)cc(Nc2ccc(N3CCNCC3)cn2)c1=O [Example 127, 2-(3-(Hydroxymethyl)-4-(1-methyl-6-oxo-5-(5-(piperazin-1-yl)pyridin-2-ylamino)-1,6-dihydropyridin-3-yl)pyridin-2-yl)-3,4,6,7,8,9-hexahydropyrazino[1,2-a]indol-1(2H)-one] | 0.141 |
| Cn1cc(-c2ccnc(N3CCn4c(cc5c4CCCC5)C3=O)c2CO)cc(Nc2cc3n(n2)CCN(C2CC2)C3)c1=O [Example 128, 2-(4-(5-(5-Cyclopropyl-4,5,6,7-tetrahydropyrazolo[1,5-a]pyrazin-2-ylamino)-1-methyl-6-oxo-1,6-dihydropyridin-3-yl)-3-(hydroxymethyl)pyridin-2-yl)-3,4,6,7,8,9-hexahydropyrazino[1,2-a]indol-1(2H)-one] | 0.0918 |
| Cn1cc(-c2ccnc(N3CCn4c(cc5c4CCCC5)C3=O)c2CO)cc(Nc2cc3n(n2)CCOC3)c1=O [Example 129, 2-(4-(5-(6,7-Dihydro-4H-pyrazolo[5,1-c][1,4]oxazin-2-ylamino)-1-methyl-6-oxo-1,6-dihydropyridin-3-yl)-3-(hydroxymethyl)pyridin-2-yl)-3,4,6,7,8,9-hexahydropyrazino[1,2-a]indol-1(2H)-one] | 0.0917 |
| C[C@H]1CN(C2COC2)CCN1c1ccc(Nc2cc(-c3ccnc(N4CCn5c(cc6c5CC(C)(C)C6)C4=O)c3CO)cn(C)c2=O)nc1 [Example 130, (3 S)-10-[4-[1-methyl-5-({5-[2-methyl 4-(oxetan-3-yl)piperazin-1-yl]pyridine-2-yl}amino)-6-oxo-1,6-dihydropyridin-3-yl]-3-(hydroxymethyl)pyridin-2-yl]-4,4-dimethyl-1,10-diazatricyclo[6.4.0.0^2,6]dodeca-2(6),7-dien-9-one] | 0.012 |
| CC[C@H]1CN(C2COC2)CCN1c1ccc(Nc2cc(-c3ccnc(N4CCn5c(cc6c5CCCC6)C4=O)c3CO)cn(C)c2=O)nc1 [Example 131, (S)-2-(4-(5-(5-(2-ethyl-4-(oxetan-3-yl)piperazin-1-yl)pyridin-2-ylamino)-1-methyl-6-oxo-1,6-dihydropyridin-3-yl)-3-(hydroxymethyl)pyridin-2-yl)-3,4,6,7,8,9-hexahydropyrazino[1,2-a]indol-1(2H)-one] | 0.0155 |
| Cn1nc(-c2ccnc(N3CCn4c(cc5c4CCCC5)C3=O)c2CO)cc(Nc2cc3n(n2)CCOC3)c1=O [Example 132, 2-(4-(5-(6,7-Dihydro-4H-pyrazolo[5,1-c][1,4]oxazin-2-ylamino)-1-methyl-6-oxo-1,6-dihydropyridazin-3-yl)-3-(hydroxymethyl)pyridin-2-yl)-3,4,6,7,8,9-hexahydropyrazino[1,2-a]indol-1(2H)-one] | 0.263 |
| CN1CCn2nc(Nc3cc(-c4ccnc(N5CCn6c(cc7c6CCCC7)C5=O)c4CO)nn(C)c3=O)cc2C1 [Example 133, 2-(3-(Hydroxymethyl)-4-(1-methyl-5-(5-methyl-4,5,6,7-tetrahydropyrazolo[1,5-a]pyrazin-2-ylamino)-6-oxo-1,6-dihydropyridazin-3-yl)pyridin-2-yl)-3,4,6,7,8,9-hexahydropyrazino[1,2-a]indol-1(2H)-one] | 0.227 |
| Cn1cc(-c2ccnc(N3CCn4c5c(c(F)c4C3=O)CCCC5)c2CO)cc(Nc2ccc(N3CCN(C4COC4)CC3)cn2)c1=O [Example 134, 10-Fluoro-2-(3-(hydroxymethyl)-4-(1-methyl-5-(5-(4-(oxetan-3-yl)piperazin-1-yl)pyridin-2-ylamino)-6-oxo-1,6-dihydropyridin-3-yl)pyridin-2-yl)-3,4,6,7,8,9-hexahydropyrazino[1,2-a]indol-1(2H)-one] | 0.0944 |
| CN1CCn2nc(Nc3cc(-c4ccnc(N5CCn6c7c(c(F)c6C5=O)CCCC7)c4CO)cn(C)c3=O)cc2C1 [Example 135, 10-Fluoro-2-(3-(hydroxymethyl)-4-(1-methyl-5-(5-methyl-4,5,6,7-tetrahydropyrazolo[1,5-a]pyrazin-2-ylamino)-6-oxo-1,6-dihydropyridin-3-yl)pyridin-2-yl)-3,4,6,7,8,9-hexahydropyrazino[1,2-a]indol-1(2H)-one] | 0.107 |
| C[C@H]1CN(C2COC2)CCN1c1ccc(Nc2cc(-c3ccnc(N4CCn5c6c(c(F)c5C4=O)CCCC6)c3CO)cn(C)c2=O)nc1 [Example 136, (S)-10-Fluoro-2-(3-(hydroxymethyl)-4-(1-methyl-5-(5-(2-methyl-4-(oxetan-3-yl)piperazin-1-yl)pyridin-2-ylamino)-6-oxo-1,6-dihydropyridin-3-yl)pyridin-2-yl)-3,4,6,7,8,9-hexahydropyrazino[1,2-a]indol-1(2H)-one] | 0.03 |
| C[C@@H]1CN(C2COC2)CCN1c1ccc(Nc2cc(-c3ccnc(N4CCn5c(cc6c5CCCC6)C4=O)c3CO)cn(C)c2=O)nc1 [Example 137, (R)-2-(3-(hydroxymethyl)-4-(1-methyl-5-(5-(2-methyl-4-(oxetan-3-yl)piperazin-1-yl)pyridin-2-ylamino)-6-oxo-1,6-dihydropyridin-3-yl)pyridin-2-yl)-3,4,6,7,8,9-hexa-hydropyrazino[1,2-a]indol-1(2H)-one] | 0.0646 |
| CN1CCn2nc(Nc3cc(-c4cncc(N5CCn6c(cc7c6CCCC7)C5=O)c4CO)cn(C)c3=O)cc2C1 [Example 138, 2-(4-(Hydroxymethyl)-5-(1-methyl-5-(5-methyl-4,5,6,7-tetrahydropyrazolo[1,5-a]pyrazin-2-ylamino)-6-oxo-1,6-dihydropyridin-3-yl)pyridin-3-yl)-3,4,6,7,8,9-hexahydropyrazino[1,2-a]indol-1(2H)-one] | 0.353 |
| Cn1cc(-c2ccnc(N3CCc4c(cc5n4CCCC5)C3=O)c2CO)cc(Nc2ccc(N3CCN(C4COC4)CC3)cn2)c1=O [Example 139, 2-(3-(Hydroxymethyl)-4-(1-methyl-5-(5-(4-(oxetan-3-yl)piperazin-1-yl)pyridine-2-ylamino)-6-oxo-1,6-dihydropyridin-3-yl)pyridin-2-yl)-3,4,6,7,8,9-hexahydropyrido[3,4-b]indolizin-1(2H)-one] | 0.326 |
| C[C@H]1CN(C2COC2)CCN1c1ccc(Nc2cc(-c3ccnc(N4CCn5c(cc6c5CC(F)(F)CC6)C4=O)c3CO)cn(C)c2=O)nc1 [Example 140, (S)-7,7-Difluoro-2-(3-(hydroxymethyl)-4-(1-methyl-5-(5-(2-methyl-4-(oxetan-3-yl)piperazin-1-yl)pyridin-2-ylamino)-6-oxo-1,6-dihydropyridin-3-yl)pyridin-2-yl)-3,4,6,7,8,9-hexahydropyrazino[1,2-a]indol-1(2H)-one] | 0.308 |
